Measurements taken from patent US7888368B2, “Treatment of drug-resistant tumors” (Sigma-Tau Industrie Farmaceutiche Riunite S.p.A., priority 2005, dated 2011).
Numbering of substitutions follows the chain as printed.

Key:
[1] = molecular target: T1, human DNA topoisomerase I wild type (YCpGAL1 hTOP1) (Homo sapiens, UniProt P11387); assay: In vivo spot test, yeast transformed with human DNA topoisomerase I wild type; conditions: Saccharomyces cerevisiae EKY2, 2% galactose, drug 45 μM, 48-72 h at 30° C.
T1 sequence (P11387 1-765): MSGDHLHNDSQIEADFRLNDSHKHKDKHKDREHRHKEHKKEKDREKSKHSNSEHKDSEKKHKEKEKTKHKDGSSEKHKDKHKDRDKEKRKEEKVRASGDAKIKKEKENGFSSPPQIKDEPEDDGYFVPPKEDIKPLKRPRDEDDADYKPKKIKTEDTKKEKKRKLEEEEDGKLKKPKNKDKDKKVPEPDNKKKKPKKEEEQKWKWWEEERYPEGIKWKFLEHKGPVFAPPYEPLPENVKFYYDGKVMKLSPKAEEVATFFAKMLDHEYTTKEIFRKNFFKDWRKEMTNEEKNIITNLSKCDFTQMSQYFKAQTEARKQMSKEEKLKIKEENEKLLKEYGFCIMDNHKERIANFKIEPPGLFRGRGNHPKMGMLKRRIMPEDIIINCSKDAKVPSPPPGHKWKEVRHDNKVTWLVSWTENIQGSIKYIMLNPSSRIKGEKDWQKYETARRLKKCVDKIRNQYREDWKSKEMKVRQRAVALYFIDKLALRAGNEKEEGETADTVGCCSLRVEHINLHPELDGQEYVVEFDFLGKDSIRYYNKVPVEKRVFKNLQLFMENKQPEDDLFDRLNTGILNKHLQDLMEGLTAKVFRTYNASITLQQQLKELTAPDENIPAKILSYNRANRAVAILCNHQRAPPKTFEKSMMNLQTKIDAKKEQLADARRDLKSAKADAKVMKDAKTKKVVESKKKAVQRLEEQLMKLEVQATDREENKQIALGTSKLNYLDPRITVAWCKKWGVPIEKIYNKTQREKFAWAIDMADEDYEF
Description: Before to transform the yeast cells with DNA (lithium acetate method), yeast was grown on solid medium. It was streaked on plates of 90 mm containing sterile solid medium (YPDA) (10 g yeast, 20 g peptone, 20 g dextrose, 0.7 g adenine, 20 g glucose, 20 g agar for liter). Colonies were grown after 48 h at 30° C. One day before the transformation, a single yeast colony of the strain to be transformed was inoculated in 5 ml of steril liquid YPDA (the medium above mentioned without agar). The colony was grown to saturation overnight under stirring at 30° C. The day after, 5 ml of saturated culture was diluted in 100 ml of YPDA liquid medium and grown at 30° C. to reach an optical density of 1.0 at 600 nm. Cells were centrifuged for 5 min at 4000×g at room temperature and the pellet was resuspended in 25 ml of a solution (T/E) containing 10 mM Tris-EDTA pH7.5, 1 mM EDTA and 100 mM lithium acetate. The yeast suspension was centrifuged for 5 min at 4000×g at room temperature. The pellet was resuspended in a fresh solution above described (about 500 μl) to obtain 2×10^9 cells/ml. To have the transformation, 200 μg of DNA carrier were mixed with 1 μg transforming DNA and 200 μl yeast cells in an eppendorf. Subsequently, 1.2 ml of a solution TE/lithium acetate containing 40% PEG were added and the yeast suspension was kept under stirring for 30 min at 30° C. A heat shock was performed by keeping the yeast suspension at 42° C. for 15 min. Subsequently it was centrifuged 5 sec at room temperature. Yeast was resuspended in TE buffer and spread up onto CM (complete minimal) dropout medium on plates. CM was previously prepared with 1.3 g of dropout powder containing different aminoacids without uracil, 1.7 g yeast nitrogen base without aminoacids and ammonium sulfate, 5 g ammonium sulfate, 20 g glucose and 20 of agar for liter). The plates were incubated at 30° C. until transformants appear.
To perform the in vivo spot test, the transformants were inoculated in 5 ml of steril liquid CM medium and grown overnight under stirring at 30° C. The day after a dilution of the yeast colonies was made to reach an optical density at 600 nm of 0.3. Starting from this first dilution, other serial dilutions (1:10, 1:100, 1:1000) were performed in plates of 96 well. 5 μl of each dilution were put on plates of 90 mm containing solid CM medium. For the control samples, 2% glucose or 2% galactose were added; for the camptothecin-derivatives treated samples, 2% galactose and the drugs at a concentration 45 μM were added. The yeast colonies were incubated at 30° C. for 48-72 h and analyzed macroscopically.

[2] = system: DU145 sensitive prostate carcinoma; assay: Antitumor activity on DU145 tumor xenograft; assay type: in vivo, human; conditions: DU145 s.c. in nude athymic mice, 35 iv mg/kg, q4d × 4
Description: Using a q4d dosing schedule repeated for 3-5 doses, ST1968 was compared to irinotecan or other known chemotherapeutic agents against different human tumor models (Table 2), including A2780/ADR multidrug-resistant ovarian carcinoma which overexpresses PgP glycoprotein, A2780/DDP platinum-resistant ovarian carcinoma and DU145RC1 camptothecin-resistant prostate carcinoma which was previously selected by continuous exposure of the parental sensitive DU145 to 9-nitro-camptothecin (Urasaki Y et al., 2001, Cancer Res 61, 1964-9). On this selected tumor cell line, a Topoisomerase I mutation which changes the arginine 364 codon to histidine (R364H) was found. […]
Exponentially growing tumor cells were injected s.c. into nude athymic mice. […] Parameters of the animal rooms were assessed as follows: 22±2° C. temperature, 55±10% relative humidity, about 15-20 filtered air changes/hour and 12 hour circadian cycle of artificial light (7 a.m., 7 p.m.). At request, the environmental conditions were monitored and the data are retained in Animal Housing Archives. […]
Tumor growth was followed by biweekly measurements of tumor diameters with a Vernier caliper. Tumor volume (TV, mm^3) was calculated as: [length (mm)×width (mm)^2]/2, where the width and the length are the shortest and the longest diameters of each tumor, respectively. […]

[3] = system: A2780/DDP platinum-resistant ovarian carcinoma; assay: Antitumor activity on A2780/DDP resistant tumor xenograft; assay type: in vivo, human; conditions: A2780/DDP s.c. in nude athymic mice, q4d × 3
Description: (§1) Using a q4d dosing schedule repeated for 3-5 doses, ST1968 was compared to irinotecan or other known chemotherapeutic agents against different human tumor models (Table 2), including A2780/ADR multidrug-resistant ovarian carcinoma which overexpresses PgP glycoprotein, A2780/DDP platinum-resistant ovarian carcinoma and DU145RC1 camptothecin-resistant prostate carcinoma which was previously selected by continuous exposure of the parental sensitive DU145 to 9-nitro-camptothecin (Urasaki Y et al., 2001, Cancer Res 61, 1964-9). On this selected tumor cell line, a Topoisomerase I mutation which changes the arginine 364 codon to histidine (R364H) was found. The 364H point mutation was located in the highly conserved core, a region of Topoisomerase I within the Topoisomerase I amino acid residues 361-364 critical for camptothecin resistance. Moreover, this mutation site is close to the catalytic tyrosine. The resistance of the Topoisomerase I/R364H is probably attributable to the loss of a critical H-bond between R364 and camptothecin E-ring lactone moiety.
(§2) Exponentially growing tumor cells were injected s.c. into nude athymic mice. The number of tumor cells was previously chosen by a growth curve. Mice were housed inside cages of makrolon (33.2×15×13 cm) with stainless steel cover-feed and sterilized and dust-free bedding cobs. Animals were housed under a light-dark cycle, keeping temperature and humidity constant. Parameters of the animal rooms were assessed as follows: 22±2° C. temperature, 55±10% relative humidity, about 15-20 filtered air changes/hour and 12 hour circadian cycle of artificial light (7 a.m., 7 p.m.). At request, the environmental conditions were monitored and the data are retained in Animal Housing Archives. Drinking water was supplied ad libitum. Each mouse was offered daily a complete pellet diet (GLP 4RF21, Mucedola) throughout the study. The analytical certificates of animal food and water are retained at Sigma-Tau premises. All animals were weighed before starting the experiment and were subdivided into the different dosage groups. Each cage was identified by a paper tag indicating: cage number, group, date of tumor injection, starting date of treatment, name of the test item, dose and route of administration, date of sacrifice.
(§3) Tumor growth was followed by biweekly measurements of tumor diameters with a Vernier caliper. Tumor volume (TV, mm^3) was calculated as: [length (mm)×width (mm)^2]/2, where the width and the length are the shortest and the longest diameters of each tumor, respectively.
(§4) The efficacy of the drug treatment was assessed as: a) Tumor volume inhibition (TVI %) in treated versus control mice, calculated as: 100−[(mean tumor volume of treated animals/mean tumor volume of control animals)×100]; b) LCK (log10 cell kill) calculated by the formula LCK=(T−C)/3.32×DT, where T and C are the mean times (days) required for treated (T) and control (C) tumor, respectively, to reach 1000 mm^3, and DT is the doubling time of control tumors; CR meaning no evidence of tumor lasting for at least 10 days.

[4] = molecular target: T2, human DNA topoisomerase I mutant YCpGAL1htop1K720E (Homo sapiens, UniProt P11387, K720E); assay: In vivo spot test, yeast transformed with human DNA topoisomerase I mutant K720E; assay type: cell-based; conditions: Saccharomyces cerevisiae EKY2, 2% galactose, drug 45 μM, 48-72 h at 30° C.
T2 sequence (P11387 1-765 K720E): T1 sequence (P11387 1-765) with K720E

[5] = system: A2780/ADR multidrug-resistant ovarian carcinoma; assay: Antitumor activity on A2780/ADR resistant tumor xenograft; assay type: in vivo, human; conditions: A2780/ADR s.c. in nude athymic mice, q4d × 4
Description: as §1, §2, §3, §4

[6] = system: DU145RC1 camptothecin-resistant prostate carcinoma; assay: Antitumor activity on DU145RC1 resistant tumor xenograft; assay type: in vivo, human; conditions: DU145 RC1 s.c. in nude athymic mice, q4d × 5
Description: as §1, §2, §3, §4

SMILES: CC[C@@]1(O)C(=O)OCc2c1cc1n(c2=O)Cc2c-1nc1ccccc1c2/C=N/OC(C)(C)C [ST1481, 7-t-butoxyiminomethylcamptothecin]
- growth of the yeasts transformed with the DNA topoisomerase I wild type [1]: inhibit the growth

SMILES: CCC1(O)C(=O)OCc2c1cc1n(c2=O)Cc2c-1nc1ccccc1c2C=NOCCN1CCOCC1 (stereo not drawn) [ST1600, 7-[2-(4-morpholinyl)ethoxy]iminomethylcamptothecin]
- growth of the yeasts transformed with the DNA topoisomerase I wild type [1]: inhibit the growth

SMILES: CC[C@@]1(O)C(=O)OCc2c1cc1n(c2=O)Cc2c-1nc1ccccc1c2/C=N\OCCN [ST1968, 7-(2-amino)ethoxyiminomethylcamptothecin]
- LCK [2]: 0.65
- TVI % [2]: 66%
- CR ([3]; 15 mg/kg): 8/8
- LCK ([3]; 15 mg/kg): 6.3
- TVI % ([3]; 15 mg/kg): 100%
- CR ([3]; 30 mg/kg): 7/7
- LCK ([3]; 30 mg/kg): >>6.3
- TVI % ([3]; 30 mg/kg): 100%
- growth of the transformed YCpGAL1htop1K720E mutant [4]: able to inhibit the growth
- CR ([5]; 15 mg/kg): 6/8
- LCK ([5]; 15 mg/kg): 2.2
- TVI % ([5]; 15 mg/kg): 99%
- LCK ([5]; 30 mg/kg): 1.9
- TVI % ([5]; 30 mg/kg): 100%
- CR ([6]; 30 mg/kg): 0/8
- LCK ([6]; 30 mg/kg): 1.3
- TVI % ([6]; 30 mg/kg): 65%
- growth of the yeasts transformed with the DNA topoisomerase I wild type [1]: inhibit the growth

SMILES: CCC1(O)C(=O)OCc2c1cc1n(c2=O)Cc2c-1nc1ccccc1c2C=NOCCN(C)C (stereo not drawn) [ST1969, 7-(2-dimethylamino)ethoxyiminomethylcamptothecin]
- growth of the transformed YCpGAL1htop1K720E mutant [4]: able to inhibit the growth
- growth of the yeasts transformed with the DNA topoisomerase I wild type [1]: inhibit the growth

SMILES: CCC1(O)C(=O)OCc2c1cc1n(c2=O)Cc2c-1nc1ccccc1c2C=NOCc1ccc(N)cc1 (stereo not drawn) [ST1976, 7-(4-amino)benzyloxyiminomethylcamptothecin]
- growth of the yeasts transformed with the DNA topoisomerase I wild type [1]: inhibit the growth

SMILES: CC[C@@]1(O)C(=O)OCc2c1cc1n(c2=O)Cc2cc3ccccc3nc2-1 [camptothecin]
- growth of the yeasts transformed with the DNA topoisomerase I wild type [1]: inhibit the growth

SMILES: N.N.O=C([O-])C1(C(=O)[O-])CCC1.[Pt+2] [carboplatin]
- CR ([3]; 25 mg/kg): 0/8
- LCK ([3]; 25 mg/kg): 0.5
- TVI % ([3]; 25 mg/kg): 26%
- CR ([5]; 33.3 mg/kg): 0/7
- LCK ([5]; 33.3 mg/kg): 0.6
- TVI % ([5]; 33.3 mg/kg): 62%

SMILES: CCc1c2c(nc3ccc(OC(=O)N4CCC(N5CCCCC5)CC4)cc13)-c1cc3c(c(=O)n1C2)COC(=O)[C@]3(O)CC [irinotecan]
- CR ([6]; 60 mg/kg): 0/8
- LCK ([6]; 60 mg/kg): 0.8
- TVI % ([6]; 60 mg/kg): 45%

SMILES: CC(=O)O[C@H]1C(=O)[C@@]2(C)[C@H]([C@H](OC(=O)c3ccccc3)[C@]3(O)C[C@H](OC(=O)[C@H](O)[C@@H](NC(=O)c4ccccc4)c4ccccc4)C(C)=C1C3(C)C)[C@]1(OC(C)=O)CO[C@@H]1C[C@@H]2O [paclitaxel]
- CR ([3]; 15 mg/kg): 6/6
- LCK ([3]; 15 mg/kg): 1.4
- TVI % ([3]; 15 mg/kg): 94%
- CR ([5]; 16 mg/kg): 0/8
- LCK ([5]; 16 mg/kg): 0.1
- TVI % ([5]; 16 mg/kg): 16%

SMILES: CC[C@@]1(O)C(=O)OCc2c1cc1n(c2=O)Cc2cc3c(CN(C)C)c(O)ccc3nc2-1 [topotecan]
- CR ([3]; 10 mg/kg): 1/8
- LCK ([3]; 10 mg/kg): 1.2
- TVI % ([3]; 10 mg/kg): 93%
- CR ([5]; 10 mg/kg): 1/6
- LCK ([5]; 10 mg/kg): 1.1
- TVI % ([5]; 10 mg/kg): 85%
